The results in this text go back to patent US20030176431A1 (priority 1997, published 2003).

Series [1] concerns Herpes simplex virus type 2. The series is described as follows: microbe, parasite or virus in culture. Format: cell-based.
For series [2], the system named is BVDV-infected MDBK cells. Format: cell-based, bovine viral diarrhea virus. As to conditions: read-out: IC50 evaluated with the spiked mouse reference serum.
The subject of series [3] is Respiratory syncytial virus. The series is described as follows: microbe, parasite or virus in culture. Format: cell-based. Particulars: read-out: IC50 Respiratory syncytial virus.
The conditions of series [4]: mouse, in vivo, po.
Series [5] concerns Coxsackie B3 virus. The series is described as follows: microbe, parasite or virus in culture. The format is cell-based.
The test system of series [6] is BVDV (strain NADL). The series is described as follows: Cell culture assay for inhibition of BVDV replication (cytopathic effect, crystal violet). Format: cell-based, bovine viral diarrhea virus. An excerpt: The replication of many viruses may be quantitatively assessed in the laboratory in various cell or tissue culture systems. Such in vitro culture methodologies are available and useable by those trained in the art for the propagation and quantitative measurement of the replication of several pestiviruses and flaviviruses. The following procedure was used for the in vitro quantitative measure of BVDV replication.
Using the procedure described in this example, compounds of the invention were evaluated for their ability to inhibit the replication of the virus in cell culture. By adding compounds at various concentrations to the culture medium, a dose response effect of the compound on virus replication can be determined. A useful quantitative measure of the inhibition of BVDV replication in this assay is the concentration of the compound at which virus replication in cell culture is inhibited by 50% in comparison to that observed in the absence of the compound (50% Inhibitory Concentration, IC50).
Anti-pestivirus compounds of the invention were screened for antiviral activity against BVDV on Madin Darby bovine kidney (MDBK) cells in a cell culture assay. Standard 96-well culture plates were seeded with 1 to 2×10^4 MDBK cells in 200 uL of Dulbeccos-modified Eagle's medium (DMEM) supplemented with 5% horse serum so as to obtain a monolayer of cells at 60% confluence. Six hours later, the medium was removed and the cell monolayers in each well were infected with 150 uL solution of BVDV (strain NADL) (M. S. Collett et al., Virology 165:191-199 (1988)) in DMEM supplemented with 2% horse serum previously titrated to yield 85-100% destruction (cytopathic effect) of the cell monolayer 36-40 hours after infection.
To determine the IC50 values of compounds tested in this experiment, ten serial 2-fold dilutions of test compounds were prepared in DMSO solvent at a compound concentration 200 times that desired for the highest final test concentration. The test compound-DMSO solutions were diluted 50-fold into DMEM containing 2% horse serum. Fifty uL of this dilution was added to the 150 uL volume present in the wells of the virus-infected plate, yielding a final DMSO concentration in each well of 0.5%. Virus control (VC; no test compound) and cell culture control (CC; no virus and no test compound) wells were included on each 96-well plate. Assay points were conducted in replicate, usually in quadruplicate. Plates were then incubated at 37° C. in a humidified atmosphere containing 2.5% carbon dioxide for 36-40 hours. At the end of the incubation period, 100 uL of a 5% solution of glutaraldehyde in water was added to each well and the wells were incubated at room temperature for 1 hour. The fixative was removed, and the cells were stained with a 0.1% solution of crystal violet in water for 15-30 minutes. After rinsing and drying the plates, the optical density of the wells was measured at 570 nm (OD570).
To determine IC50 values for the test compounds, the mean value of the OD570 readings of the virus control wells (VC) on a plate was subtracted from the OD570 readings of all wells on that plate. The IC50 values were then calculated according to the following formula: [formula]
where Y represents the mean OD570 reading of the cell control wells (CC) divided by 2; B represents the mean OD570 reading of wells of the compound dilution nearest to and below Y; A represents the mean OD570 reading of wells of the compound dilution nearest to and above Y; L represents the compound concentration at B; and H represents the compound concentration at A.
In general terms: Cytopathic effects are the visible damage that an infection or toxin causes in cultured cells.

Series [7] has as its system normal cells. Particulars: highest concentration giving optical density ≧75% of control, MTT, 68 hours.
Method: This assay measures cell viability, and therefore cytotoxicity, by quantitatively detecting the in situ reduction of 3-(4,5-dimethylthiazol-2-yl)-2,5-diphenyltetrazolium bromide (MTT) by viable cells. Cells are seeded in 96-well plates in DMEM containing 2% horse serum at a density of 4×10^3 cells per well. After incubation for 4 hours at 37° C. and 5% CO2, 2-fold serial dilutions of compound in 1% DMSO (or solvent alone) are added to quadruplicate wells and the plates are incubated for an additional 68 hours at 37° C. and 5% CO2, which is equivalent to 3 to 4 cell doublings. The culture medium is removed, and the cells are treated with 1 mg/ml of MTT in phosphate-buffered saline, pH 7.2 for 4 hours at 37° C. and 5% CO2. After removal of the unreduced MTT, the reduced blue formazan crystals produced by the viable cells are solubilized by the addition of 0.04N HCl in isopropanol. The absorbance at 570 nm (A570) of each well is read using a suitable microplate reader. Cell viability is expressed as the percentage of optical density for compound-treated cells relative to the optical density of solvent alone-treated control wells. The highest compound concentration resulting in an optical density of ≧75% of the control is represented as the cellular cytotoxicity value (CC75).
Series [8] deals with female Swiss Webster mice. The series is described as follows: Animal safety study: maximum tolerated dose after single oral dose. Particulars: mice; for MTD: single oral dose, survival over 7 days.
Method: (§1) Doses above this level are overtly toxic or fatal to the animal.
(§2) To assess the safety of compounds of the invention, the methyl cellulose formulations of compounds of the invention were administered to laboratory mice. A single dose of each compound in a 0.5 mL volume was administered by oral gavage to groups of test animals, each consisting of five female Swiss Webster mice 8 to 9 weeks of age and weighing 25 to 30 g. The MTD was determined by administering increasing doses of compound and assessing animal survival over a 7 day period.
Series [9] relates to Influenza A virus. The series is described as follows: microbe, parasite or virus in culture. Format: cell-based. As to conditions: read-out: IC50 Influenza A virus.
Series [10] deals with female Swiss Webster mice. Particulars: mouse, in vivo, po.
Method: as §1, §2
A short description of series [11]: Animal safety study: maximum tolerated dose after single oral dose. As to conditions: female, Swiss Webster, mouse, in vivo, po.
Method: as §1, §2
The mark [12] stands for this setting: single oral gavage dose 21 mg/kg.
[13] abbreviates: single oral gavage dose 71 mg/kg.
Where [14] appears, read: single oral gavage dose 214 mg/kg.
[15] abbreviates: single oral gavage dose 710 mg/kg.
[16] abbreviates: Bovine viral diarrhea virus isolates and strains, BVDV strain NADL on MDBK cells, 36-40 hours, read-out: IC50.
The mark [17] stands for this setting: Human alphaherpesvirus 2, read-out: IC50 Herpes simplex virus type 2.
[18] abbreviates: human respiratory syncytial virus.
[19] abbreviates: Enterovirus B, B3, read-out: IC50 Coxsackie B3 virus.
[20] abbreviates: Bovine viral diarrhea virus isolates and strains, BVDV, read-out: IC50 determined in cell culture.
Where [21] appears, read: Bovine viral diarrhea virus isolates and strains, Table 3 specificity panel, BVDV, read-out: IC50 BVDV.
Setting [22] is: Bovine viral diarrhea virus isolates and strains, antiviral IC50 against BVDV, Table 4, read-out: IC50.

Where two headings read alike, the source gives them in different places.

As to `CCCN(CCC)CCSc1nnc2c(n1)[nH]c1ccccc12` [Example 1, 3-[((2-dipropylamino)ethyl)thio]-5H-1,2,4-triazino[5,6-b]indole], the IC50 – broadly, the point on the concentration scale where inhibition reaches its midpoint – was over 50 µM in series [1] (read-out: IC50 Herpes simplex virus type 2); 0.0035 µM in series [2]; over 50 µM in series [3]; over 50 µM in series [5] (read-out: IC50 Coxsackie B3 virus); 0.006 µM in [6] (read-out: IC50); 0.006 µM in [6] (read-out: IC50 BVDV). Moreover, the IC50 in series [6] (read-out: IC50 determined in cell culture) was 0.006 µM; in series [9] it was over 50 µM. Besides, the “Concentration Of Drug Measured In Serum Post Drug Administration 30 Min.” value amounted to 0.1 µM in [4] (21 mg/kg) and 1.1 µM in [4] (214 mg/kg). Moreover, the “Concentration Of Drug Measured In Serum Post Drug Administration 90 Min.” value in [4] (21 mg/kg) came to 0.07 µM; in [4] (214 mg/kg), 0.6 µM. This molecule also came in with a CC75 in series [7] of 2 µM. Also, the values for the MTD result in [8] and in series [10] were “≧710 mg/kg” and “greater than or equal to the highest dose tested”, respectively. For the same molecule, the “#Survivors (alive at Day 7)” value in [8] (setting [12]), in series [8] (setting [13]), in series [8] (setting [14]) and in series [8] (setting [15]) was 5/5 each time.

As for `CCN(CC)CC(C)Sc1nnc2c(n1)[nH]c1ccccc12` (stereo not shown) [Example 2], in series [6] (setting [16]), the IC50 is 0.3 µM.

As to `CC(C)N(CCSc1nnc2c(n1)[nH]c1ccccc12)C(C)C` [Example 3], in series [6] (setting [16]), the IC50 was found to be 3.1 µM.

As to `CC(CN(C)C)Sc1nnc2c(n1)[nH]c1ccccc12` (stereo not shown) [Example 4], the IC50 in series [6] (setting [16]) was found to be 3.7 µM.

Consider `CN(C)CCSc1nnc2c(n1)[nH]c1ccccc12` [Example 5], for which the IC50 in series [6] (setting [16]) is 5.5 µM.

As to `c1ccc2c(c1)[nH]c1nc(SCCN3CCCC3)nnc12` [Example 6], the IC50 in [6] (setting [16]) worked out at 0.5 µM.

For `c1ccc2c(c1)[nH]c1nc(SCCN3CCCCC3)nnc12` [Example 7], the IC50 in series [1] (setting [17]) was over 50 µM; in [3] (setting [18]), over 50 µM; in [5] (setting [19]), over 50 µM; in series [6] (setting [16]), 0.06 µM; in series [6] (setting [20]), 0.06 µM; in series [6] (setting [21]), 0.06 µM. Also, the IC50 in series [6] (setting [22]) was 0.06 µM; in series [9] (Influenza A virus), over 50 µM. The “Concentration Of Drug Measured In Serum Post Drug Administration 30 Min.” value is under 1.5 µM in [4] (Swiss Webster, 21 mg/kg) and 46.0 µM in series [4] (Swiss Webster, 214 mg/kg). In addition, the “Concentration Of Drug Measured In Serum Post Drug Administration 90 Min.” value is under 1.5 µM in series [4] (Swiss Webster, 21 mg/kg) and 36.2 µM in series [4] (Swiss Webster, 214 mg/kg). In series [7], this molecule yielded a CC75 of 12.5 µM. This molecule gave an MTD at 7 day in series [11] of at least 710 mg/kg. Also, the MTD result in [8] is “greater than or equal to the highest dose tested”. The “#Survivors (alive at Day 7)” value in [8] (setting [12]), in series [8] (setting [13]), in series [8] (setting [14]) and in series [8] (setting [15]) was 5/5 in each case.

For `c1ccc2c(c1)[nH]c1nc(SCCCN3CCCCC3)nnc12` [Example 8], the IC50 in series [6] (setting [16]) amounted to 4.4 µM.

Regarding `c1ccc2c(c1)[nH]c1nc(SCCN3CCCCCC3)nnc12` [Example 9], the IC50 in [1] (setting [17]) was over 50 µM; in series [3] (setting [18]), over 50 µM; in series [5] (setting [19]), over 50 µM; in [6] (setting [16]), 0.03 µM; in series [6] (setting [20]), 0.03 µM; in series [6] (setting [21]) it was 0.03 µM. The IC50 is 0.03 µM in series [6] (setting [22]) and over 50 µM in [9] (Influenza A virus). Besides, the “Concentration Of Drug Measured In Serum Post Drug Administration 30 Min.” value was found to be 0.7 µM in [4] (Swiss Webster, 21 mg/kg) and 19.6 µM in series [4] (Swiss Webster, 214 mg/kg). Further, the “Concentration Of Drug Measured In Serum Post Drug Administration 90 Min.” value in [4] (Swiss Webster, 21 mg/kg) is under 0.2 µM; in [4] (Swiss Webster, 214 mg/kg) it was 8.5 µM. In [7], the CC75 came out at 25 µM. In [11], the MTD at 7 day came to 214 mg/kg. For the same molecule, the results for the “#Survivors (alive at Day 7)” value in series [8] (setting [12]), in [8] (setting [13]) and in series [8] (setting [15]) were 5/5, 5/5 and 0/5, respectively.

`c1ccc2c(c1)[nH]c1nc(SCc3ccncc3)nnc12` [Example 10]: the IC50 in series [6] (setting [16]) is 4 µM.

`c1ccc2c(c1)[nH]c1nc(SCCN3CCOCC3)nnc12` [Example 11]: in series [6] (setting [16]), the IC50 turned out to be 1.2 µM.

In the case of `CCCCN(CCCC)CCSc1nnc2c(n1)[nH]c1ccccc12` [Example 12], the IC50 in series [6] (setting [16]) was determined as 0.01 µM.

As to `COc1cc2oc(=O)cc(CSc3nnc4c(n3)[nH]c3ccccc34)c2cc1OC` [Example 13], the IC50 in series [6] (setting [16]) was determined as 1.7 µM.

As to `N#CC1CCN(CCSc2nnc3c(n2)[nH]c2ccccc23)CC1` [Example 14], the IC50 in series [6] (setting [16]) was 1.8 µM.

As for `CCC1CCN(CCSc2nnc3c(n2)[nH]c2ccccc23)CC1` [Example 15], in series [6] (setting [16]), the IC50 was over 3 µM.

On to `c1ccc2c(c1)OCC(CSc1nnc3c(n1)[nH]c1ccccc13)O2` (stereo not shown) [Example 16], for which the IC50 in series [6] (setting [16]) is 2.5 µM.

Consider `Clc1cc(CSc2nnc3c(n2)[nH]c2ccccc23)cc(Cl)n1` [Example 17], for which the IC50 in [6] (setting [16]) was found to be 1.4 µM.

In the case of `c1ccc2c(c1)[nH]c1nc(SCCCCOC3CCCCO3)nnc12` (stereo not shown) [Example 18], the half-inhibitory concentration (IC50) in [6] (setting [16]) is over 3 µM.

Take `CCCN(CCC)CCSc1nnc2c(n1)[nH]c1ccccc12` [Example 19]: the IC50 in series [6] (setting [16]) is 0.002 µM.

Turning to `Cc1ccc2[nH]c3nc(SCCN4CCCCCC4)nnc3c2c1` [Example 20], the half-maximal inhibitory concentration (IC50) in series [6] (setting [16]) was 0.007 µM.

In the case of `Brc1ccc2[nH]c3nc(SCCN4CCCCC4)nnc3c2c1` [Example 21], in [6] (setting [16]), the IC50 came to 0.036 µM.

Take `Brc1ccc2[nH]c3nc(SCCN4CCCCCC4)nnc3c2c1` [Example 22]: the IC50 in series [6] (setting [16]) came out at 0.042 µM.

Turning to `Fc1ccc2[nH]c3nc(SCCN4CCCCCC4)nnc3c2c1` [Example 23], the IC50 in series [6] (setting [16]) was 0.014 µM.

Regarding `Cc1ccc2[nH]c3nc(SCCN4CCCCC4)nnc3c2c1` [Example 24], the IC50 in series [6] (setting [16]) came out at 0.013 µM.

`COc1ccc2[nH]c3nc(SCCN4CCOCC4)nnc3c2c1` [Example 25]: in series [6] (setting [16]), the IC50 worked out at 2 µM.

For `CCCN(CCC)CCSc1nnc2c(n1)[nH]c1ccc(N)cc12` [Example 26], the IC50 in [6] (setting [16]) worked out at 0.01 µM.

Regarding `Fc1ccc2[nH]c3nc(SCCN4CCCCC4)nnc3c2c1` [Example 27], in [6] (setting [16]), the IC50 worked out at 0.021 µM.
